Consider 18 compounds from patent publication US20250026752A1, “POSITIVE ALLOSTERIC MODULATORS OF THE MUSCARINIC ACETYLCHOLINE RECEPTOR M4” (Vanderbilt University, priority 2021, published 2025).

The conditions of data set [1]: hepatotoxicity of AChE inhibitors; cited from earlier work.
Data set [2] has as its target T1, human mAChR M4 (Homo sapiens, UniProt P08173).
T1 construct: expressed in transfected cells; host or cells: CHO-K1 (ATCC), stably expressing hM4 and Gqi5
T1 sequence (P08173 1-479): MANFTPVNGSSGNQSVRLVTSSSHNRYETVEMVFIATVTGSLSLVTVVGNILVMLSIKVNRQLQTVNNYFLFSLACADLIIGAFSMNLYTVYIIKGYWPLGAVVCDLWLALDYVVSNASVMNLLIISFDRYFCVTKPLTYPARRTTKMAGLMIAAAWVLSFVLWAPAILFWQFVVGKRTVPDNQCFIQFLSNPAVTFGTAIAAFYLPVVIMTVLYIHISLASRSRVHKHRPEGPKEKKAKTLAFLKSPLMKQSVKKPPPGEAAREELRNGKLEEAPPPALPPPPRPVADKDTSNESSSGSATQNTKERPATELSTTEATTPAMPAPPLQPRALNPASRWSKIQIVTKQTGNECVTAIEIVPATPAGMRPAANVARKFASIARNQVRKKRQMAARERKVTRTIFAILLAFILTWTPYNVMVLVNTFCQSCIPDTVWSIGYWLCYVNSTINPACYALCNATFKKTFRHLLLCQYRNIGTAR
The data set is described as follows: mAChR M4 cell-based functional assay: calcium flux (Fluo-4, FDSS), positive allosteric modulator activity on the EC20 acetylcholine response, hM4-Gqi5 CHO-K1 cells. Further details: Emax: dose or concentration left out as unconfirmed. The following applies: for Emax at 30 µM: CHO-K1, human M4, % ACh maximum at 30 μM; for EC50: human M4, PAM activity on EC20 acetylcholine response, calcium flux, read-out: Human M4 EC50. The procedure, abridged: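 Potentiation was taken as the concentration-dependent rise in the EC20 acetylcholine calcium response, fitted by a four-parameter logistic with EC20 as baseline. Fluo-4-loaded hM4-Gqi5 CHO-K1 cells received 11-point, threefold-diluted compound before acetylcholine at 144 s; FDSS read at 1 Hz.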
(Calcium assays in cells follow changes in intracellular calcium, usually with a dye or a luminescent sensor.)

For data set [3] the following is noted: Alzheimer's disease patients; cited from earlier work.
For data set [4] the following is noted: without causing catalepsy; cited from earlier work.

Bounds are passed on as bounds.

For the compound `Nc1c2c(nc3ccccc13)CCCC2` [tacrine], the “elevated liver transaminases observed in patients” value in data set [1] is reported as “about 30 % of patients”.

The term Emax denotes the greatest response seen or fitted, relative to the assay's reference. Broadly, the EC50 is the concentration that produces a half-maximal response. With `CC1Cc2ncc(C(F)(F)F)cc2CN1c1ncnc2ccc(F)cc12` (centres unmarked) [Compound 155, 6-fluoro-4-[7-methyl-3-(trifluoromethyl)-7,8-dihydro-5H-1,6-naphthyridin-6-yl]quinazoline], in data set [2], the maximal response (Emax) at 30 µM is 98% and the EC50 worked out at 60 nM. On to `Cc1ccc2ncnc(N3CCc4ncc(Nc5cccnc5F)cc4C3)c2c1` [Compound 97, N-(2-fluoro-3-pyridyl)-6-(6-methylquinazolin-4-yl)-7,8-dihydro-5H-1,6-naphthyridin-3-amine], for which, in data set [2], the maximal response (Emax) at 30 µM was found to be 95% and the 50% effective concentration (EC50) came out at 80 nM. For `c1cnc2nc(N3CCOCC3)nc(N3CCc4ncc(N5CCCn6nccc65)cc4C3)c2c1` [Compound 250, 4-(4-(3-(6,7-dihydropyrazolo[1,5-a]pyrimidin-4(5H)-yl)-7,8-dihydro-1,6-naphthyridin-6(5H)-yl)pyrido[2,3-d]pyrimidin-2-yl)morpholine], in data set [2], the Emax at 30 µM came to 73% and the EC50 stood at 360 nM.

As to `C[C@@H]1CN(c2ncnc3cc(F)c(F)cc23)Cc2cc(N3CCOCC3)cnc21` [Compound 258, (R)-4-(6-(6,7-difluoroquinazolin-4-yl)-8-methyl-5,6,7,8-tetrahydro-1,6-naphthyridin-3-yl)morpholine], in data set [2], the Emax at 30 µM was 93% and the EC50 turned out to be 180 nM.

As to `CCCCCCOc1nsnc1C1=CCCN(C)C1` [xanomeline], the “effect on psychotic behavioral symptoms (delusions, suspiciousness, vocal outbursts, hallucinations)” value in data set [3] is reported as “reduce psychotic behavioral symptoms”. Also, in data set [4], the “activity in animal models with profiles similar to known antipsychotic drugs” value was “active in animal models”. As for `FC(F)(F)c1ccc2nc(N3CCc4ncc(C5CC5)cc4C3)nc(N3CCc4ncc(C5CC5)cc4C3)c2c1` [Compound 163, 2,4-bis(3-cyclopropyl-7,8-dihydro-5H-1,6-naphthyridin-6-yl)-6-(trifluoromethyl)quinazoline], in data set [2], the Emax at 30 µM stood at 57% and the EC50 was more than 10000 nM. Taken in the same sequence, the figures for `COc1ccc2ncnc(N3CCc4ncc(N5CCCn6nccc65)cc4C3)c2c1` [Compound 77, 4-[3-(6,7-dihydro-5H-pyrazolo[1,5-a]pyrimidin-4-yl)-7,8-dihydro-5H-1,6-naphthyridin-6-yl]-6-methoxy-quinazoline] were 127% and 70 nM. On to `Cc1ccc2nc(N(C)C)nc(N3CCc4ncc(C(F)(F)F)cc4C3)c2c1` [Compound 180, N,N,6-trimethyl-4-[3-(trifluoromethyl)-7,8-dihydro-5H-1,6-naphthyridin-6-yl]quinazolin-2-amine], for which the Emax in data set [2] (CHO-K1) worked out at 90%. Moreover, the EC50 in data set [2] stood at 710 nM. As for `Clc1ccc2ncnc(N3CCc4ncc(C5CC5)cc4C3)c2c1` [Compound 231, 6-chloro-4-(3-cyclopropyl-7,8-dihydro-1,6-naphthyridin-6(5H)-yl)quinazoline], in data set [2], the maximal response (Emax) at 30 µM is 92% and the 50% effective concentration (EC50) came to 50 nM. The corresponding values for `Fc1ccc2nc(C(F)(F)F)nc(N3CCc4ncc(C(F)(F)F)cc4C3)c2c1` [Compound 173, 6-fluoro-2-(trifluoromethyl)-4-[3-(trifluoromethyl)-7,8-dihydro-5H-1,6-naphthyridin-6-yl]quinazoline] are 50% and 170 nM. In the case of `Cc1nn(-c2cnc3c(c2)CN(c2ncnc4ccc(F)cc24)CC3)c2cccnc12` [Compound 218, 6-fluoro-4-(3-(3-methyl-1H-pyrazolo[4,3-b]pyridin-1-yl)-7,8-dihydro-1,6-naphthyridin-6(5H)-yl)quinazoline], in data set [2], the Emax at 30 µM amounted to 73% and the EC50 stood at 570 nM. For `Fc1cc2ncnc(N3CCc4ncc(N5CCCn6ccnc65)cc4C3)c2cc1F` [Compound 277, 4-(3-(6,7-dihydroimidazo[1,2-a]pyrimidin-8(5H)-yl)-7,8-dihydro-1,6-naphthyridin-6(5H)-yl)-6,7-difluoroquinazoline], in data set [2], the maximal effect (Emax) at 30 µM came out at 67% and the 50% effective concentration (EC50) stood at 2630 nM. In the case of `Fc1ccc2ncnc(N3CCc4ncc(Nc5ccncc5F)cc4C3)c2c1` [Compound 315, N-(3-fluoropyridin-4-yl)-6-(6-fluoroquinazolin-4-yl)-5,6,7,8-tetrahydro-1,6-naphthyridin-3-amine], in data set [2], the Emax at 30 µM worked out at 81% and the EC50 stood at 10 nM. On to `Fc1cc2c(N3CCc4ncc(N5CCCn6nccc65)cc4C3)nc(Cl)nc2cc1Cl` [Compound 109, 2,7-dichloro-4-[3-(6,7-dihydro-5H-pyrazolo[1,5-a]pyrimidin-4-yl)-7,8-dihydro-5H-1,6-naphthyridin-6-yl]-6-fluoro-quinazoline], for which, in data set [2], the Emax at 30 µM was determined as 80% and the EC50 turned out to be 460 nM.

Consider `C[C@@H]1CCN(c2cnc3c(c2)CN(c2ncnc4ccc(F)cc24)CC3)c2ccnn21` [Compound 288, (R)-6-fluoro-4-(3-(7-methyl-6,7-dihydropyrazolo[1,5-a]pyrimidin-4(5H)-yl)-7,8-dihydro-1,6-naphthyridin-6(5H)-yl)quinazoline], for which, in data set [2], the maximal response (Emax) at 30 µM came out at 75% and the EC50 was determined as 40 nM. The corresponding values for `[2H]c1nc(N2CCc3ncc(C(F)(F)F)cc3C2)c2cc(F)ccc2n1` [Compound 190, 2-deuterio-6-fluoro-4-[3-(trifluoromethyl)-7,8-dihydro-5H-1,6-naphthyridin-6-yl]quinazoline] are 91% and 60 nM. The corresponding values for `Cc1nc(N2CCc3ncc(N4CCCn5nccc54)cc3C2)c2cc(F)ccc2n1` [Compound 73, 4-[3-(6,7-dihydro-5H-pyrazolo[1,5-a]pyrimidin-4-yl)-7,8-dihydro-5H-1,6-naphthyridin-6-yl]-6-fluoro-2-methyl-quinazoline] are 97% and 90 nM.
